Source: patent US20110028495A1, “THE USE OF 6-HALOGENO-[1,2,4]-TRIAZOLO-[1,5-a]-PYRIMIDINE COMPOUNDS FOR COMBATING PESTS IN AND ON ANIMALS” (priority 2007, published 2011)

What was measured:
[1] = system: Mediterranean fruitfly (Ceratitis capitata); experiment: Activity against Mediterranean fruitfly (eggs/hatched larvae, microtiter plate); details: 144 h, eggs sprayed, 6 days, compared to 0% mortality of untreated controls
Experimental: B.1 Activity Against Mediterranean Fruitfly (Ceratitis capitata)
The compounds were formulated in 1:3 DMSO:water. 50 to 80 eggs were placed into microtiterplates filled with 0.5% agar-agar and 14% diet in water. The eggs were sprayed with 5 μl of the test solution, the plates were sealed with pierced foils and kept at 27-29° C. and 75-85% humidity under fluorescent light for 6 days. Mortality was assessed on the basis of the agility of the hatched larvae. Tests were replicated 2 times.

[2] = system: Cat flea (Ctenocephalides felis); experiment: Ingestion assay with Ctenocephalides felis (treated cow blood); details: po, adult C. felis fed treated cow blood, 72 hours post treatment, read-out: EC50 (mortality of C. felis)
Experimental: B.5 Activity Against Cat Flea (Ctenocephalides felis)
B.5.1 Ingestion Assay with Ctenocephalides felis
The compounds were formulated in 100% DMSO and were diluted with fresh cow blood to final testing concentrations of 50 ppm, 12.5 ppm, 3.125 ppm, 0.78 ppm and 0.195 ppm. Ten adult C. felis were loaded into testing cages and exposed to blood containing the test compound for up to 72 hours. Blood was changed at 24 hour intervals until the test was completed and kept at 37° C. for duration of the test. The efficacy of a compound was determined based on mortality of C. felis at 72 hours post treatment.

Caenorhabditis elegans = experiment: Activity against Caenorhabditis elegans (L1 larval motility); details: L1 C. elegans, dose response assay, read-out: EC50 (reduction in motility of L1 larvae)
Experimental: B.2 Activity Against Caenorhabditis elegans
(§1) The compounds were formulated in 100% DMSO and were tested in microtiter plates containing 50 μl nematode growth media, 1% E. coli and 20 L1 C. elegans. The efficacy of a compound was determined based on the motility of the larvae as compared to average motility of control wells containing DMSO only. Compounds with >80% reduction in motility were tested in a dose response assay to determine EC50 values.

cat fleas = experiment: Efficacy against fleas in dogs (spot-on); format: in vivo, cat fleas on dogs; details: 20 mg/kg, days 9, 16 and 23, compared to the placebo group
Excerpt: (§2) B.7 Study to Evaluate Efficacy of Compounds Against Fleas and Ticks in Dogs
(§3) Dogs were infested with 100 cat fleas on days −1, 8, 15, 22, 29, and 36, and 50 brown dog ticks on days −1, 7 14, 21, 28, and 35. Infested dogs receive a treatment of a compound or placebo in the form of spot-on applied at the middle of the neck between the shoulder blades. Live fleas and ticks were removed and counted on days 2, 9, 16, 23, 30, and 37.

brown dog ticks = experiment: Efficacy against ticks in dogs (spot-on); format: in vivo, brown dog ticks on dogs; details: 20 mg/kg, days 9, 16 and 23, compared to the placebo group
Excerpt: as §2, §3

[3] = system: Yellowfever mosquito (Aedes aegypti); experiment: Activity against yellowfever mosquito (neonate larval motility); details: neonate A. aegypti larvae, dose response assay
Experimental: B.4. Activity Against Yellowfever Mosquito (Aedes aegypti)
as §1, with “180 ul X Luria Broth media” for “50 μl nematode growth media, 1% E. coli”, “10 neonate A. aegypti larvae.” for “20 L1 C. elegans.”

Q: `Cc1nc2ncnn2c(NC(C)c2ccc(OC(F)(F)CF)cc2)c1Cl` (racemic) [C.I.38] was tested. Which mortality at 2500 ppm [1] did it give?
A: The mortality at 2500 ppm was greater than 75%.

Q: And the LC50 [2]?
A: The LC50 was less than 50 µg/mL.

Q: For `CCc1nc2ncnn2c(NC(C)c2ccc(OC(F)(F)CF)cc2)c1Cl` (racemic) [C.I.49], which mortality at 2500 ppm [1] is on record?
A: Its mortality at 2500 ppm is greater than 75%.

Q: Which EC50 (Caenorhabditis elegans) does the source give for `CCc1nc2ncnn2c(NC(C)c2ccc(-c3ccccc3)cc2)c1Cl` (racemic) [C.I.59] here?
A: Its EC50 is less than 10 µg/mL.

Q: With `Cc1nc2ncnn2c(NC2CCC(C)CC2)c1Cl` (stereo not shown) [C.I.1] as the compound, how does the EC50 (Caenorhabditis elegans) read?
A: The EC50 was less than 10 µg/mL.

Q: For `Cc1nc2ncnn2c(NC2CCC(C(C)C)CC2)c1Cl` (stereo not shown) [C.I.2], which EC50 (Caenorhabditis elegans) is on record?
A: The EC50 was less than 10 µg/mL.

Q: `CCC(C)[C@H]1CC[C@@H](Nc2c(Cl)c(C)nc3ncnn23)CC1` (stereo partly shown) [C.I.5] was tested. Which LC50 [2] did it give?
A: The LC50 was less than 50 µg/mL.

Q: With `Cc1nc2ncnn2c(NCc2ccc(Oc3ccc(Cl)cc3)cc2)c1Cl` [C.I.10] as the compound, how does the EC50 (Caenorhabditis elegans) read?
A: Its EC50 is less than 10 µg/mL.

Q: And the LC50 [2]?
A: The LC50 was less than 50 µg/mL.

Q: Which EC50 (Caenorhabditis elegans) does the source give for `Cc1nc2ncnn2c(NCc2ccc(Oc3ccc(Br)cc3)cc2)c1Cl` [C.I.11] here?
A: The EC50 was less than 10 µg/mL.

Q: And the LC50 [2]?
A: The LC50 was less than 50 µg/mL.

Q: How did the EC50 (Caenorhabditis elegans) turn out when `Cc1nc2ncnn2c(NCc2ccc(Oc3ccc(Cl)c(Cl)c3)cc2)c1Cl` [C.I.12] was run?
A: The EC50 was less than 10 µg/mL.

Q: For `CCc1nc2ncnn2c(NC2CCC(C(C)C)CC2)c1Cl` (stereo not shown) [C.I.17], which LC50 [2] is on record?
A: Its LC50 is less than 50 µg/mL.

Q: Which LC50 [2] does the source give for `CCc1nc2ncnn2c(NC2CCC(C(C)CC)CC2)c1Cl` (stereo not shown) [C.I.18] here?
A: The LC50 was less than 50 µg/mL.

Q: Which LC50 [2] does the source give for `CCc1nc2ncnn2c(N[C@H]2CC[C@@H](C(C)(C)C)CC2)c1Cl` [C.I.20] here?
A: Its LC50 is less than 50 µg/mL.

Q: What about the efficacy against fleas (cat fleas) of the same compound?
A: Its efficacy against fleas is greater than 80%.

Q: What about the efficacy against ticks (brown dog ticks) of the same compound?
A: The efficacy against ticks was greater than 80%.

Q: For `CCc1nc2ncnn2c(N[C@@H](C)c2ccc(Cl)cc2)c1Cl` [C.I.22], which mortality at 2500 ppm [1] is on record?
A: Its mortality at 2500 ppm is greater than 75%.

Q: `CCc1nc2ncnn2c(N[C@@H](C)c2ccc(Br)cc2)c1Cl` [C.I.23] was tested. Which EC50 (Caenorhabditis elegans) did it give?
A: The EC50 was less than 10 µg/mL.

Q: What does the source list for `CCc1nc2ncnn2c(N[C@@H](C)c2ccc(OC(F)F)cc2)c1Cl` [C.I.31]?
A: EC50 (reduction in motility of larvae) [3]: < 1 ppm; LC50 [2]: < 50 µg/mL

Q: `CCc1nc2ncnn2c(NCCc2ccc(OC(F)(F)F)cc2)c1Cl` [C.I.32] was tested. Which EC50 (Caenorhabditis elegans) did it give?
A: The EC50 was less than 10 µg/mL.

Q: Which results are given for `Cc1nc2ncnn2c(N[C@H]2CC[C@@H](C(F)(C(F)(F)F)C(F)(F)F)CC2)c1Cl` [C.I.34]?
A: EC50 (Caenorhabditis elegans): < 10 µg/mL; LC50 [2]: < 50 µg/mL

Q: For `Cc1nc2ncnn2c(N[C@@H](C)c2ccc3ccccc3c2)c1Cl` [C.I.37], which LC50 [2] is on record?
A: Its LC50 is less than 50 µg/mL.

Q: Which EC50 (Caenorhabditis elegans) does the source give for `Cc1nc2ncnn2c(N[C@@H](C)c2ccc(OC(F)(F)C(F)F)cc2)c1Cl` [C.I.40] here?
A: The EC50 was less than 10 µg/mL.

Q: `CCC(Nc1c(Cl)c(C)nc2ncnn12)c1ccc(OC(F)(F)C(F)C(F)(F)F)cc1` (stereo not shown) [C.I.43] was tested. Which mortality at 2500 ppm [1] did it give?
A: Its mortality at 2500 ppm is greater than 75%.

Q: And the EC50 (Caenorhabditis elegans)?
A: The EC50 was less than 10 µg/mL.

Q: How did the EC50 (Caenorhabditis elegans) turn out when `CCc1nc2ncnn2c(N[C@H]2CC[C@@H](CCC(F)(F)F)CC2)c1Cl` [C.I.45] was run?
A: The EC50 was less than 10 µg/mL.

Q: `CCc1nc2ncnn2c(N[C@H]2CC[C@@H](C(F)(C(F)(F)F)C(F)(F)F)CC2)c1Cl` [C.I.46] was tested. Which EC50 (Caenorhabditis elegans) did it give?
A: Its EC50 is less than 10 µg/mL.

Q: `CCc1nc2ncnn2c(NC(CC)c2ccc(OC(F)(F)C(F)C(F)(F)F)cc2)c1Cl` (stereo not shown) [C.I.53] was tested. Which mortality at 2500 ppm [1] did it give?
A: Its mortality at 2500 ppm is greater than 75%.

Q: How did the mortality at 2500 ppm [1] turn out when `CCc1nc2nc(C)nn2c(N[C@H]2CC[C@@H](C(C)(C)C)CC2)c1Cl` [C.I.55] was run?
A: The mortality at 2500 ppm was greater than 75%.

Q: With `CCc1nc2nc([S+](C)[O-])nn2c(N[C@@H](C)c2ccc(C)cc2)c1Cl` (stereo partly shown) [C.I.56] as the compound, how does the EC50 (Caenorhabditis elegans) read?
A: Its EC50 is less than 10 µg/mL.

Q: How did the EC50 (Caenorhabditis elegans) turn out when `CCc1nc2ncnn2c(N[C@@H](C)c2cccc(OCc3ccccc3)c2)c1Cl` [C.I.58] was run?
A: Its EC50 is less than 10 µg/mL.
